Conditions: Liquid; for mass density / viscosity: 298.15 K; for mass density: 101.33 kPa; for vapor or sublimation pressure: Twin ebulliometer

C1C[C@@H]2[C@H]3CC[C@H](C3)[C@@H]2C1 [exo-tetrahydrodicyclopentadiene]
Conditions | mass density [kg/m3] | vapor or sublimation pressure [kPa] | viscosity [mPa·s]
– | 931.4 | – | 2.739
393 K | – | 14.8 | –
397.64 K | – | 17.5 | –
402.29 K | – | 20.7 | –
406.93 K | – | 24.2 | –
411.57 K | – | 28.2 | –
416.21 K | – | 32.7 | –
420.86 K | – | 37.8 | –
425.5 K | – | 43.3 | –
430.14 K | – | 49.5 | –
434.79 K | – | 56.3 | –
439.43 K | – | 63.8 | –
444.07 K | – | 72 | –
448.71 K | – | 80.9 | –
453.36 K | – | 90.6 | –
458 K | – | 101.1 | –

COC(=O)OC [dimethyl carbonate]
Conditions | mass density [kg/m3] | vapor or sublimation pressure [kPa] | viscosity [mPa·s]
– | 1063.4 | – | 0.578
310 K | – | 12.17 | –
313.86 K | – | 14.7 | –
317.71 K | – | 17.65 | –
321.57 K | – | 21.05 | –
325.43 K | – | 24.96 | –
329.29 K | – | 29.43 | –
333.14 K | – | 34.51 | –
337 K | – | 40.26 | –
340.86 K | – | 46.73 | –
344.71 K | – | 53.99 | –
348.57 K | – | 62.11 | –
352.43 K | – | 71.13 | –
356.29 K | – | 81.14 | –
360.14 K | – | 92.2 | –
364 K | – | 104.4 | –

From the NIST ThermoML archive (doi:10.1016/j.fluid.2009.06.002)
